Where two headings read alike, the source gives them in different places.
Tests used:
[1] = target: T1, androgen receptor (AR) splicing variant AR-v7 (Homo sapiens, UniProt P10275); experiment: Degradation activity on androgen receptor splicing variant AR-v7 in 22RV1 cells (ELISA); format: cell-based; settings: AR-v7 degradation in 22RV1 cells, 48 h, class symbols
T1 construct: The degradation activity of compounds on AR-v7 in 22RV1 cells; host or cells: 22RV1 cells
T1 sequence (P10275 1-644 isoform P10275-3): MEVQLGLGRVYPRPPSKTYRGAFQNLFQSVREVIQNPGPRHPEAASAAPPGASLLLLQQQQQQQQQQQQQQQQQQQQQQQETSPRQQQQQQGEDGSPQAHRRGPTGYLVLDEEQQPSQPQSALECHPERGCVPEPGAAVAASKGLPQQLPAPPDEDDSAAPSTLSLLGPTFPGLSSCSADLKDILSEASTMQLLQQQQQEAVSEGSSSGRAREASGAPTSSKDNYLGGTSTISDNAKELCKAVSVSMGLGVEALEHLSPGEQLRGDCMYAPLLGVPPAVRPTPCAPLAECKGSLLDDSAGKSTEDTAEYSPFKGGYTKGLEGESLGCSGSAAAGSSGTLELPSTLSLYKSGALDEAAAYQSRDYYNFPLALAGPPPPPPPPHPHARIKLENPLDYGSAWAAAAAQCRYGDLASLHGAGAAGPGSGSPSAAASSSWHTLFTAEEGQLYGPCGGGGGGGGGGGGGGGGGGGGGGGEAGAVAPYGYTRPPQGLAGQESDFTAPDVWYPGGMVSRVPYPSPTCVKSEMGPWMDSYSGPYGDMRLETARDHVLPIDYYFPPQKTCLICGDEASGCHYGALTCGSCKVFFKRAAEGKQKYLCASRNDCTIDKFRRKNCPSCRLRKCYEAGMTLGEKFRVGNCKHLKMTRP

[2] = Homo sapiens, 22Rv1, 144 h, read-out: 22RV1 IC50 (nM), 22RV1 cells, 6 days culture, CCK-8, OD 450 nm
[3] = read-out: 22RV1 IC50, 22RV1 cells, 6 days culture, CCK-8, OD 450 nm

Row | Compound | IC50 (22RV1 cells; [2]) [nM] | DC50 [1] [nM] | IC50 (22RV1 cells; Homo sapiens, 22Rv1, 144 h, read-out: 22RV1 IC50 (nM)) [nM] | IC50 (22RV1 cells; [3]) [nM]
1 | Cc1nc(-c2ncc(Oc3ccc(C(C)c4ccc(O[C@H]5C[C@H](Nc6ccc7c(c6)C(=O)N(C6CCC(=O)NC6=O)C7=O)C5)cc4)cc3)cn2)no1 (stereo partly shown) [Example 480] | 12 | < 10 | – | –
2 | CC(C)(c1ccc(OCCCCCCCOCCCOCCCNc2ccc3c(c2)C(=O)N(C2CCC(=O)NC2=O)C3=O)cc1)c1ccc(OCc2ccnc(N3CC4(COC4)C3)n2)cc1 (stereo not shown) [Example 62, 5-((3-(3-((7-(4-(2-(4-((2-(2-oxa-6-azaspiro[3.3]heptan-6-yl)pyrimidin-4-yl)methoxy)phenyl)propan-2-yl)phenoxy)heptyl)oxy)propoxy)propyl)amino)-2-(2,6-dioxopiperidin-3-yl)isoindolin-1,3-dione] | 1500 | 1000 to 5000 | – | –
3 | CC(=O)c1cnc(Oc2ccc(C(C)(C)c3ccc(O[C@H]4C[C@@H](Nc5ccc6c(c5)C(=O)N(C5CCC(=O)NC5=O)C6=O)C4)cc3)cc2)cn1 (stereo partly shown) [Example 130] | 13 | < 10 | – | –
4 | CC(CNc1ccc2c(c1)C(=O)N(C1CCC(=O)NC1=O)C2=O)COc1ccc(C(C)(C)c2ccc(OCc3ccnc(N4CC5(COC5)C4)n3)cc2)cc1 (stereo not shown) [Example 496, 5-((3-(4-(2-(4-((2-(2-oxa-6-azaspiro[3.3]heptan-6-yl)pyrimidin-4-yl)methoxy)phenyl)propan-2-yl)phenoxy)-2-methylpropyl)amino)-2-(2,6-dioxopiperidin-3-yl)isoindolin-1,3-dione] | – | < 10 | 61 | –
5 | C[C@@H](O)c1cnc(Oc2ccc(C3(c4ccc(OC5CC(Nc6ccc7c(c6)C(=O)N(C6CCC(=O)NC6=O)C7=O)C5)cc4)CCCC3)cc2)cn1 (stereo partly shown) [Example 178, 2-(2,6-dioxopiperidin-3-yl)-5-(((1r,3r)-3-(4-(1-(4-((5-(1-hydroxylethyl)pyrazin-2-yl)oxy)phenyl)cyclopentyl)phenoxy)cyclobutyl)amino) isoindolin-1,3-dione] | – | < 10 | – | 5
6 | CN1CCN(c2nccc(COc3ccc(C(C)(C)c4ccc(OCCCNc5ccc6c(c5)C(=O)N(C5CCC(=O)NC5=O)C6=O)cc4)cc3)n2)CC1 (stereo not shown) [Example 72] | 37 | 11 to 100 | – | –
7 | CCOc1nccc(COc2ccc(C(C)(C)c3ccc(OCCCNc4ccc5c(c4)C(=O)N(C4CCC(=O)NC4=O)C5=O)cc3)cc2)n1 (stereo not shown) [Example 69, 2-(2,6-dioxopiperidin-3-yl)-5-((3-(4-(2-(4-((2-ethoxypyrimidin-4-yl)methoxy)phenyl)propan-2-yl)phenoxy)propyl)amino)isoindolin-1,3-dione] | 50 | 11 to 100 | – | –
8 | CN1CCN(c2nccc(COc3ccc(C(C)(C)c4ccc(OC5CC(Nc6ccc7c(c6)C(=O)N(C6CCC(=O)NC6=O)C7=O)C5)cc4)cc3)n2)CC1 (stereo not shown) [Example 393] | 10 | 11 to 100 | – | –
9 | CC1CN(c2nccc(COc3ccc(C(C)(C)c4ccc(OC5CC(Nc6ccc7c(c6)C(=O)N(C6CCC(=O)NC6=O)C7=O)C5)cc4)cc3)n2)CC(C)N1 (stereo not shown) [Example 452, 5-((3-(4-(2-(4-((2-(3,5-dimethylpiperazin-1-yl)pyrimidin-4-yl)methoxy)phenyl)propan-2-yl)phenoxy)cyclobutyl)amino)-2-(2,6-dioxopiperidin-3-yl)isoindolin-1,3-dione] | 8 | 11 to 100 | – | –
10 | CC1CN(c2nccc(COc3ccc(C(C)(C)c4ccc(O[C@H]5C[C@H](Nc6ccc7c(c6)C(=O)N(C6CCC(=O)NC6=O)C7=O)C5)cc4)cc3)n2)CCN1C (stereo partly shown) [Example 450, 5-(((1r,3r)-3-(4-(2-(4-((2-(3,4-dimethylpiperazin-1-yl)pyrimidin-4-yl)methoxy)phenyl)propan-2-yl)phenoxy)cyclobutyl)amino)-2-(2,6-dioxopiperidin-3-yl)isoindolin-1,3-dione] | 8 | 11 to 100 | – | –
11 | Cc1nc(-c2ccnc(Oc3ccc(C(C)(C)c4ccc(O[C@H]5C[C@@H](Nc6ccc7c(c6)C(=O)N(C6CCC(=O)NC6=O)C7=O)C5)cc4)cc3)n2)no1 (stereo partly shown) [Example 173, 2-(2,6-dioxopiperidin-3-yl)-5-(((1s,3s)-3-(4-(2-(4-((4-(5-methyl-1,2,4-oxadiazol-3-yl)pyrimidin-2-yl)oxy)phenyl)propan-2-yl)phenoxy)cyclobutyl)amino)isoindolin-1,3-dione] | 13 | 11 to 100 | – | –
12 | CC(C)(O)c1ccnc(Oc2ccc(C(C)(C)c3ccc(O[C@H]4C[C@H](Nc5ccc6c(c5)C(=O)N(C5CCC(=O)NC5=O)C6=O)C4)cc3)cc2)n1 (stereo partly shown) [Example 161] | 10 | < 10 | – | –
13 | CC(=O)c1ncc(Oc2ccc(C(C)(C)c3ccc(O[C@H]4C[C@@H](Nc5ccc6c(c5)C(=O)N(C5CCC(=O)NC5=O)C6=O)C4)cc3)cc2)cn1 (stereo partly drawn) [Example 128, 5-(((cis)-3-(4-(2-(4-((2-acetylpyrimidin-5-yl)oxy)phenyl)propan-2-yl)phenoxy)cyclobutyl)amino)-2-(2,6-dioxopiperidin-3-yl)isoindolin-1,3-dione] | 7 | 11 to 100 | – | –
14 | CC(C)(c1ccc(OCc2cccc(-n3nccn3)n2)cc1)c1ccc(O[C@H]2C[C@H](Nc3ccc4c(c3)C(=O)N(C3CCC(=O)NC3=O)C4=O)C2)cc1 (stereo partly shown) [Example 419] | 8 | < 10 | – | –
15 | COc1nccc(COc2ccc(C(C)(C)c3ccc(OC4CC(Nc5ccc6c(c5)C(=O)N(C5CCC(=O)NC5=O)C6=O)C4)cc3)cc2)n1 (stereo not shown) [Example 447, 2-(2,6-dioxopiperidin-3-yl)-5-((3-(4-(2-(4-((2-methoxypyrimidin-4-yl)methoxy)phenyl)propan-2-yl)phenoxy)cyclobutyl)amino) isoindolin-1,3-dione] | 8 | < 10 | – | –
16 | Cc1cnc(N2CC3(COC3)C2)nc1COc1ccc(C(C)(C)c2ccc(O[C@H]3C[C@H](Nc4ccc5c(c4)C(=O)N(C4CCC(=O)NC4=O)C5=O)C3)cc2)cc1 (stereo partly shown) [Example 204] | 6 | < 10 | – | –
17 | CC(C)(c1ccc(OCCCNc2ccc3c(c2)C(=O)N(C2CCC(=O)NC2=O)C3=O)cc1)c1ccc(OCc2ccnc(-n3nccn3)n2)cc1 (stereo not shown) [Example 229, 5-((3-(4-(2-(4-((2-(2H-1,2,3-triazol-2-yl)pyrimidin-4-yl)methoxy)phenyl)propan-2-yl)phenoxy)propyl)amino)-2-(2,6-dioxopiperidin-3-yl)isoindolin-1,3-dione] | 31 | 11 to 100 | – | –
18 | CNc1nccc(COc2ccc(C(C)(C)c3ccc(OCCCNc4ccc5c(c4)C(=O)N(C4CCC(=O)NC4=O)C5=O)cc3)cc2)n1 (stereo not shown) [Example 390] | 26 | 11 to 100 | – | –
19 | CC(C)(c1ccc(OCc2ccnc(N3CC[C@H](O)C3)n2)cc1)c1ccc(OC2CC(Nc3ccc4c(c3)C(=O)N(C3CCC(=O)NC3=O)C4=O)C2)cc1 (stereo partly shown) [Example 398] | – | < 10 | – | 9
20 | CC(C)(c1ccc(Oc2cc(N3CC4(COC4)C3)ncn2)cc1)c1ccc(O[C@H]2C[C@@H](Nc3ccc4c(c3)C(=O)N(C3CCC(=O)NC3=O)C4=O)C2)cc1 (stereo partly shown) [Example 571] | 5 | < 10 | – | –
21 | CC(C)(c1ccc(Oc2cncnc2)cc1)c1ccc(O[C@H]2C[C@H](Nc3ccc4c(c3)C(=O)N(C3CCC(=O)NC3=O)C4=O)C2)cc1 (stereo partly shown) [Example 477, 2-(2,6-dioxopiperidin-3-yl)-5-(((1r,3r)-3-(4-(2-(4-(pyrimidin-5-yloxy)phenyl)propan-2-yl)phenoxy)cyclobutyl)amino)isoindolin-1,3-dione] | 9 | < 10 | – | –
22 | CC(C)(c1ccc(OCc2cnc(N3CC4(COC4)C3)nc2)cc1)c1ccc(O[C@H]2C[C@H](Nc3ccc4c(c3)C(=O)N(C3CCC(=O)NC3=O)C4=O)C2)cc1 (stereo partly shown) [Example 535] | 35 | 11 to 100 | – | –
23 | CC(C)(c1ccc(Oc2cnc(CO)nc2)cc1)c1ccc(O[C@H]2C[C@H](Nc3ccc4c(c3)C(=O)N(C3CCC(=O)NC3=O)C4=O)C2)cc1 (stereo partly shown) [Example 549] | 7 | < 10 | – | –
24 | CN(C)C(=O)c1noc(COc2ccc(C(C)(C)c3ccc(OCCCNc4cccc5c4C(=O)N(C4CCC(=O)NC4=O)C5=O)cc3)cc2)n1 (stereo not shown) [Example 181, 5-((4-(2-(4-(3-((2-(2,6-dioxopiperidin-3-yl)-1,3-dioxoisoindolin-4-yl)amino)propoxy)phenyl)propan-2-yl)phenoxy)methyl)-N,N-dimethyl-1,2,4-oxadiazol-3-carbonylamine] | 140 | 1000 to 5000 | – | –
25 | CC(C)(c1ccc(Oc2ccnc(N3CC4(COC4)C3)n2)cc1)c1ccc(O[C@H]2C[C@H](Nc3ccc4c(c3)C(=O)N(C3CCC(=O)NC3=O)C4=O)C2)cc1 (stereo partly shown) [Example 244, 5-((1r,3r)-3-(4-(2-(4-(4-((2-(2-oxa-6-azaspiro[3.3]heptane-6-yl)pyrimidin-4-yl)oxy)phenyl)propan-2-yl)phenoxy)cyclobutyl)amino)-2-(2,6-dioxopiperidin-3-yl)isoindolin-1,3-dione] | 6 | < 10 | – | –
26 | Cn1cc(-c2cccc(COc3ccc(C(C)(C)c4ccc(O[C@H]5C[C@H](Nc6ccc7c(c6)C(=O)N(C6CCC(=O)NC6=O)C7=O)C5)cc4)cc3)n2)cn1 (stereo partly shown) [Example 416] | 22 | < 10 | – | –
